# Test results as given in PubChem BioAssay AID1645863 (Buhrlage Lab, Dana-Farber Cancer Institute and Novartis …, 2021).
# The source made the active and inactive calls. How the calls were made is not given here.
# Target: Ubiquitin carboxyl-terminal hydrolase 10 (Homo sapiens) (UniProt Q14694)
# Test: ubiquitin-specific protease 10 DUB inhibitors, concentration-effect, biochemical, verification of primary screen actives (AID 1645863);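 further: potency values describe inhibition of USP10 cleavage of a fluorogenic ubiquitin substrate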
# Details: USP10 deubiquitinase enzymatic assay
# Chain of Ubiquitin carboxyl-terminal hydrolase 10 (Homo sapiens) (Q14694 whole entry, looked up): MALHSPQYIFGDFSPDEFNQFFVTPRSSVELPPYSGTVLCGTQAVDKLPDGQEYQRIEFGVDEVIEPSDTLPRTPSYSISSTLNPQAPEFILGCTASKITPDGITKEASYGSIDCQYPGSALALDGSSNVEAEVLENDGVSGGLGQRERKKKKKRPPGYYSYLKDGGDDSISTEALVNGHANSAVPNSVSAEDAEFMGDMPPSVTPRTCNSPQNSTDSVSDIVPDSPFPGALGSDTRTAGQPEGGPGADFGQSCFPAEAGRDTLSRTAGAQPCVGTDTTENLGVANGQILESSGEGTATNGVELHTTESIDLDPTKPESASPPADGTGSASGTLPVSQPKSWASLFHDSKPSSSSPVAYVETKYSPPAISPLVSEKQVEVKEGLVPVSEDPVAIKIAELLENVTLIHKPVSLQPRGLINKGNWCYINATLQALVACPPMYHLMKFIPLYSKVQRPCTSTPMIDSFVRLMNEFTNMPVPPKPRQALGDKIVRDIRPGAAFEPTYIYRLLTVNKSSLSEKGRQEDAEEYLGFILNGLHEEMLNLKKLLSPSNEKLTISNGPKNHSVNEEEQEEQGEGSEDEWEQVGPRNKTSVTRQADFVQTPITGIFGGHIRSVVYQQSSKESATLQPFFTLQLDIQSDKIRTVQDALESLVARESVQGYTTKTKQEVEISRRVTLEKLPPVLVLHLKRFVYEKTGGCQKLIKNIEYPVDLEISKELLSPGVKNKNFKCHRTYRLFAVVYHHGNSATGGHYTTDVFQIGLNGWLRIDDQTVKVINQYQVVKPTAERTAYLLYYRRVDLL
row,Structure (SMILES),IC50
1,O=c1c2[nH]c3ccccc3c2ncn1CCC1=CCCCC1,> 40 µM (inactive)
2,CCCCCCCC1OC(=O)Cc2cc(O)c(O)c(O)c21 (stereo not drawn),3.3 µM
3,O=C(Nc1ccc(F)cc1F)c1cc(-c2ccccn2)n[nH]1,> 40 µM (inactive)
4,Cc1noc(-c2ccnc(-n3cnc(C(=O)NCC4CC4)c3)c2)n1,> 40 µM (inactive)
5,O=c1c(O)c(-c2ccc(O)c(O)c2)oc2cc(O)cc(O)c12,1.16 µM
6,COc1cc(CC(=O)Nc2ccccc2N2CCOCC2)cc(OC)c1OC,> 40 µM (inactive)
7,CCC(=O)Nc1nc2cc(NC(=O)Nc3ccccc3Cl)ccc2s1,> 40 µM (inactive)
8,Cc1ccc(Nc2nc(O)c(CC(=O)Nc3ccccc3C)s2)cc1C,> 40 µM (inactive)
9,CCCCCC(=O)C(CCCC)c1oc(=O)c(CCCC)c(O)c1CCCC (stereo not drawn),31 µM
10,O=C(c1[nH]nc2c1COc1ccccc1-2)N1CCN(c2ccccn2)CC1,> 40 µM (inactive)
11,O=C(NC(Cc1ccccc1)c1nc2ccccc2[nH]1)C1CC1 (stereo not drawn),> 40 µM (inactive)
12,Nc1c(C(=O)NCc2ccc3c(c2)OCO3)nnn1Cc1ccc(Br)cc1F,18.4 µM
13,COc1c(C)c(C(O)C(C)O)c2[nH]c3ccc(CC=C(C)C)cc3c2c1O (stereo not drawn),> 40 µM (inactive)
14,Fc1ccccc1-c1nc2c3cnn(-c4ccccc4)c3ncn2n1,> 40 µM (inactive)
15,O=C(c1ccncc1)N1CCN(CC2CC=CCC2)CC1 (stereo not drawn),> 40 µM (inactive)
16,Cc1cc(N2CCN(c3ncccn3)CC2)nc2ccc(NC(=O)Cn3nc([N+](=O)[O-])c(Br)c3C)cc12,> 40 µM (inactive)
17,CC(Nc1nnc(Cc2ccccc2)c(=O)[nH]1)c1ccccc1 (stereo not drawn),> 40 µM (inactive)
18,O=C(CCSc1ccc(Cl)cc1)c1cccs1,> 40 µM (inactive)
19,COc1cc(O)c2c(O)c3c(cc2c1)C[C@@]1(O)CC(=O)C(C(N)=O)=C(O)[C@@]1(O)C3=O,7.47 µM
20,COc1ccc(N/C=C/c2onc(C)c2[N+](=O)[O-])c(OC)c1,> 40 µM (inactive)
21,Cc1nnc(NC(=O)C2CC(=O)N(CCc3ccc(F)cc3)C2)s1 (stereo not drawn),> 40 µM (inactive)
22,CC(=O)Nc1ccc(C(=O)/C=C2\NCCc3cc4c(cc32)OCCCO4)cc1,> 40 µM (inactive)
23,CCOc1ccc(C2SCC(=O)Nc3c2c(=O)[nH]n3C2CCCCC2)cc1 (stereo not drawn),> 40 µM (inactive)
24,Cn1c(O)c(C2=Nc3ccccc3SC(c3cccc(O)c3)C2)c(=O)[nH]c1=O (stereo not drawn),> 40 µM (inactive)
25,COc1cccc(NC(=O)c2cnc(N3CCCC3)nc2C)c1,> 40 µM (inactive)
26,CNc1ccc(-c2noc([C@@H]3CCCN3Cc3cccc(C#N)c3)n2)cn1,> 40 µM (inactive)
27,Cc1nc2c(c(C)c1CCC(=O)Nc1ccccc1F)c(=O)n(C)c(=O)n2C,> 40 µM (inactive)
28,O=C(NCCc1nc2ccccc2n1CCOc1ccccc1Cl)C1CCCCC1,36.8 µM

# More lines, now with the values ahead:
row,IC50,Structure (SMILES)
1,7.42 µM,Cc1cccc(C(=O)Nc2cccc(SC(C(=O)Nc3ccc(Cl)c(C(=O)O)c3)c3ccccc3)c2)c1 (stereo not drawn)
2,> 40 µM (inactive),CS(=O)(=O)c1ccc2nc(N(Cc3cccnc3)C(=O)c3ccc4ccccc4c3)sc2c1
3,38.1 µM,Cc1nc(-c2ccc(Cl)cc2)oc1C(=O)Nc1ccc(Cl)cc1
4,> 40 µM (inactive),Cc1cc(-c2ccc(S(=O)(=O)NCc3ccc(Cl)cc3)s2)on1
5,> 40 µM (inactive),Cc1ccc(S(=O)(=O)N2CCC3(CC2)OC(=O)Nc2ccccc23)cc1
6,> 40 µM (inactive),CCN(CC)C(=O)c1sc(NC(=O)c2cc(-c3ccccc3Cl)nc3ccccc23)c(C(N)=O)c1C
7,21 µM,Brc1ccc(Nc2nc(-c3ccccn3)nc3ccccc23)cc1
8,21 µM,Cc1ccc(NC(=O)Cn2c(=O)n(CC(=O)NCCc3ccccc3)c(=O)c3sccc32)cc1C
9,> 40 µM (inactive),O=C(COc1ccc(C2CCCCC2)cc1)Nc1ccc(-c2nn3cnnc3s2)cc1
10,> 40 µM (inactive),COc1ccc(-c2ccc(SCC(=O)Nc3ccc(F)cc3)nn2)cc1OC
11,> 40 µM (inactive),COc1cccc(NC(=O)c2oc3ccccc3c2NC(=O)COc2cccc(OC)c2)c1
12,5.79 µM,CC1=C(Cn2c3cccc(=O)c-3nc3ccccc32)CCC(C)(C)C1
13,39.8 µM,O=C(Cn1cnc(-c2noc(-c3cccc(F)c3)n2)c1)Nc1ccccc1
14,> 40 µM (inactive),Cc1ccc(C(=O)NCc2ccc(C(=O)Nc3ccc(Cl)cc3)o2)cc1
15,29.9 µM,COc1cccc(CNC(=O)c2nnn(CC(=O)Nc3cc(C)ccc3C)c2N)c1
16,15.6 µM,CCCCN1Cc2sc(NC(=O)Nc3ccccc3C)nc2C1=O
17,> 40 µM (inactive),O=C(Nc1nc2c(ccc3ccccc32)s1)c1cccc(Br)c1
18,13.2 µM,O=c1[nH]c(C2CCN(S(=O)(=O)c3ccc(S(=O)(=O)NC4CCCC4)cc3)CC2)nc2c1nnn2Cc1cccc(Cl)c1
19,34.9 µM,O=C(Cn1nnc2ccccc21)Nc1nc(-c2ccc3c(c2)CCN3C(=O)c2ccccc2F)cs1
20,> 40 µM (inactive),CCCCOc1ccc(C(=O)n2ccn(S(=O)(=O)c3ccc(C)cc3)c2=O)cc1

row,IC50,Structure (SMILES)
1,> 40 µM (inactive),COc1ccc(-c2cc3c(=O)n(CC(=O)NCc4ccccc4)ncn3n2)cc1
2,13.1 µM,Cc1ccc(Cl)cc1NC(=O)Cn1c(=O)n(CCC(=O)NCc2ccco2)c(=O)c2ccccc21
3,> 40 µM (inactive),CC(=O)Nc1ccc(S(=O)(=O)NCc2ccc(C(=O)NCCc3ccc(Cl)cc3)cc2)cc1
4,15.1 µM,COc1ccc(NC(=O)Cn2c(=O)n(-c3ccc(CC(=O)NCc4ccco4)cc3)c(=O)c3ccccc32)cc1Cl
5,> 40 µM (inactive),Cc1ccc(C(=O)O)cc1NC(=O)C(Sc1cccc(NC(=O)c2ccccc2C)c1)c1ccccc1 (stereo not drawn)
6,9.78 µM,COc1ccc(C(=O)COC(=O)c2ccccc2NS(=O)(=O)c2ccc(O)c([N+](=O)[O-])c2)cc1
7,> 40 µM (inactive),Cc1ccc(C(=O)c2cn(CC(=O)Nc3ccc(F)c(F)c3)c3ccc(F)cc3c2=O)cc1
8,25.8 µM,COc1ccc(NC(=O)CC(=O)c2ccc([N+](=O)[O-])cc2)cc1S(=O)(=O)Nc1ccc(Cl)cc1
9,> 40 µM (inactive),COc1cccc(C(=O)Nc2nc(-c3nnn(-c4ccc(C)c(F)c4)c3C)ns2)c1
10,21.7 µM,CCc1ccc(NC(=O)C(C)OC(=O)/C=C/c2ccc(S(=O)(=O)Nc3cccc(S(N)(=O)=O)c3)cc2)cc1 (stereo not drawn)
11,> 40 µM (inactive),COc1ccc(-c2nc(-c3cn(-c4ccccc4)nn3)no2)c(OC)c1
12,> 40 µM (inactive),COc1ccc(NC(=O)Cn2c(=O)n(CCCCC(=O)NCc3ccco3)c(=O)c3ccccc32)cc1Cl
13,> 40 µM (inactive),CCn1c(SCC(=O)c2c(N)n(CC(C)C)c(=O)n(C)c2=O)nnc1-c1ccccc1
14,20.3 µM,Cc1ccc2[nH]c(=O)c(-c3nc4ccc(C)cn4c3NCc3ccc(F)cc3)cc2c1
15,22.3 µM,CC(C)c1ccc(NC(=O)COC(=O)c2ccc(NS(=O)(=O)c3ccc4c(c3)OCCO4)cc2)cc1
16,30.1 µM,COc1ccc(NC(=O)Cn2cc(C(=O)c3ccc(C)cc3)c(=O)c3ccccc32)cc1
17,16.5 µM,O=C(CC1C(=O)Nc2nc3ccccc3n21)Nc1cccc2ccccc12 (stereo not drawn)
18,> 40 µM (inactive),COc1ccc(C(=O)NC(Cc2ccccc2)c2nc3ccccc3[nH]2)c(OC)c1 (stereo not drawn)
19,12.1 µM,CCn1cc2c(n1)c(=O)n(Cc1ccccc1)c(=O)n2CC(=O)Nc1ccc(C)cc1C
20,> 40 µM (inactive),Cc1ccccc1NC(=O)Cc1csc2nc(-c3ccc(F)cc3)cn12
